According to patent publication US9063123B2, “Transgenic mice expressing human toll-like receptor 8” (Dynavax Technologies Corporation, priority 2011, dated 2015):

Key:
Format in all cases: cell-based
[1] = target: T1, human TLR8 expressed from the transgene in TLR8TGCL8 mice (Homo sapiens, UniProt Q9NR97); experiment: Cytokine production by bone marrow cells from TLR8TGCL8 transgenic mice (ELISA); conditions: 5×10^5 bone marrow cells from TLR8TGCL8 mice vs C57BL/6 WT, 100 or 50 μg/mL, 24 hours
T1 construct: the human BAC carrying TLR8 gene was obtained from the RPCIB-753 BAC library; expressed in transfected cells; host or cells: Blood cells, bone marrow cells and PBMC of hTLR8 transgenic mice, and the whole animals; The mice came from C57BL/6NTac ES cells transfected with the BAC: the Clone 8 germline line and chimeras
T1 sequence (Q9NR97 27-1041): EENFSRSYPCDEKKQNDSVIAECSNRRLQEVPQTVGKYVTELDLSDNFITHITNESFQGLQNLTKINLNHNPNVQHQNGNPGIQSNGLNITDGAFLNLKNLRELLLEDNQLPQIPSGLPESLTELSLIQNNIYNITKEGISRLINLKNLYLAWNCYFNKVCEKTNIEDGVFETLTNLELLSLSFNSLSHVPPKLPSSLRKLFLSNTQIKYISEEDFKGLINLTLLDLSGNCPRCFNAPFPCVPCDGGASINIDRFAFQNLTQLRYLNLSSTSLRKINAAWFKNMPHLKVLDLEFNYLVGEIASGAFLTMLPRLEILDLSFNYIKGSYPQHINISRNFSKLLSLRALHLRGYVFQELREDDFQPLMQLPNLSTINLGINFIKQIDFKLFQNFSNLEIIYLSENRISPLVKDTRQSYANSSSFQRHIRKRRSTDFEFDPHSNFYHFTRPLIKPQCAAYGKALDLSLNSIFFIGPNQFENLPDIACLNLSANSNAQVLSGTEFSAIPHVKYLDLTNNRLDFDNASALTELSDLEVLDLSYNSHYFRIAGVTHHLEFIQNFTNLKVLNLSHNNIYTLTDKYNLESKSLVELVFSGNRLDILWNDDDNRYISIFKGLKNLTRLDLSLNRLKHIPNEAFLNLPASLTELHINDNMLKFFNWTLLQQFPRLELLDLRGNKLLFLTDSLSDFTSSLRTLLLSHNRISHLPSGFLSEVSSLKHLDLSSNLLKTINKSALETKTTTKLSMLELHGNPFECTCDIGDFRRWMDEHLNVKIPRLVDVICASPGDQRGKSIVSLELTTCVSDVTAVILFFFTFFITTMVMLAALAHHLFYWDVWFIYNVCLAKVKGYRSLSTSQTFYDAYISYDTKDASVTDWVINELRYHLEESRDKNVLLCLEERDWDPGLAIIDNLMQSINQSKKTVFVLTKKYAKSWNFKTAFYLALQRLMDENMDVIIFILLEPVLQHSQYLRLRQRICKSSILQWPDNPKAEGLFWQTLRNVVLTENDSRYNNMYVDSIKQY
From the text: (§1) PN-based TLR8 ligand stabilized immunomodulatory RNA (5′-M2[…]-/glycerol/-[…]2-5′ (M2=C6-linker); SEQ ID NO:3) and PN-based TLR7 ligand stabilized immunomodulatory RNA (5′-[…]-/glycerol/-[…]-5′ (R=7-deazaguanosine); SEQ ID NO:2) were previously identified (Lan et al., PNAS 104:13750-13755, 2007). To confirm that human TLR8 expressed from the transgene in TLR8TGCL8 mice is functional and sensitive to stimulation, the effect of TLR8-stimulating RNA PN (SEQ ID NO:3) on cytokine production was assessed. 5×10^5 blood cells from TLR8TGCL8 transgenic mice or C57BL/6 WT animals were stimulated with TLR8 agonist at different concentrations as shown in FIG. 13. 24 hours later supernatants were harvested and assayed for mouse IL-12, TNF-α and IL-6 using standard ELISA procedures. In addition, 5×10^5 bone marrow cells from TLR8TGCL8 transgenic mice or C57BL/6 WT animals were stimulated with TLR8 agonist (SEQ ID NO:3) at different concentrations as shown in FIG. 14. Mouse TNF-α and IL-6 production was assayed in supernatants harvested after 24 hours.

Mouse PBMCs = experiment: IL-12 and TNF-α production by mouse PBMCs (ELISA); conditions: 5×10^5 cells from 129 wt and TLR7KO mice, 100 μg/ml
Experimental: (§2) The effect of TLR7 and TLR8-stimulating RNA PNs was further evaluated in mouse cells by measuring IL-12 and TNF-α production (FIG. 4). Mouse splenocytes and PBMCs were prepared from 129 wt mice and TLR7KO mice, and 5×10^5 cells were stimulated with 100 μg/ml of either TLR8 or TLR7 agonist as indicated in FIG. 4. IL-12 and TNF-α were measured by ELISA using standard techniques.

[2] = target: T1, human TLR8 expressed from the transgene in TLR8TGCL8 mice; experiment: Cytokine production by blood cells from TLR8TGCL8 transgenic mice (ELISA); conditions: 5×10^5 blood cells from TLR8TGCL8 mice vs C57BL/6 WT, 200 or 100 μg/mL, 24 hours
From the text: as §1

human monocytes = experiment: Cytokine production by human monocytes stimulated with TLR7/TLR8 RNA PN (ELISA); conditions: 2×10^5 human monocytes, 20, 100 or 200 μg/mL, 24 hours, compared with PBMCs
Experimental: (§3) PN-based TLR8 ligand stabilized immunomodulatory RNA (5′-M2[…]-/glycerol/-[…]2-5′ (M2=C6-linker); SEQ ID NO:3) and PN-based TLR7 ligand stabilized immunomodulatory RNA (5′-[…]-/glycerol/-[…]-5′ (R=7-deazaguanosine); SEQ ID NO:2) were previously identified (Lan et al., PNAS 104:13750-13755, 2007). The effect of these TLR7— and TLR8-stimulating RNA PN was evaluated by measuring production of IL-6 and TNF-α in human peripheral blood mononuclear cells (PBMCs) and human monocytes (FIG. 2). 5×10^5 PBMCs or 2×10^5 monocytes from healthy human donors were stimulated with 20 μg/mL, 100 μg/mL, or 200 μg/mL of either TLR8 agonist or TLR7 agonist as indicated in FIG. 2. Twenty-four hours later supernatants were assessed for presence of inflammatory cytokines IL-6 and TNF-α by standard ELISA procedure.

Mouse splenocytes = experiment: IL-12 and TNF-α production by mouse splenocytes (ELISA); conditions: 5×10^5 cells from 129 wt and TLR7KO mice, 100 μg/ml
Experimental: as §2

human pDCs = experiment: Cytokine production by human pDCs stimulated with TLR7/TLR8 RNA PN (ELISA); conditions: 1×10^5 human pDCs (negative for TLR8), 100 μg/mL, 24 hours
Experimental: The effect of TLR7 and TLR8-stimulating RNA PN were also evaluated in human pDCs by measuring production of IL-6, TNF-α, and IFN-α. […] 1×10^5 pDCs from healthy human donors were stimulated with 100 μg/mL of either TLR8 agonist or TLR7 agonist (Lan et al., PNAS 104:13750-13755, 2007) or medium alone as indicated in FIG. 3. Twenty-four hours later supernatants were assessed for presence of inflammatory cytokines IL-6, TNF-α and IFN-α by standard ELISA procedure.

[3] = tested on: human peripheral blood mononuclear cells (PBMCs); experiment: Cytokine production by human PBMCs stimulated with TLR7/TLR8 RNA PN (ELISA); conditions: 5×10^5 human PBMCs, 20, 100 or 200 μg/mL, 24 hours
Experimental: as §3

Substance | mouse TNF-α and IL-6 production by bone marrow cells [1] | stimulation of mouse PBMCs (IL-12 and TNF-α production) (Mouse PBMCs) | mouse IL-12, TNF-α and IL-6 production by blood cells [2] | production of IL-6 and TNF-α in monocytes (human monocytes) | stimulation of mouse splenocytes (IL-12 and TNF-α production) (Mouse splenocytes) | stimulation of pDCs (IL-6, TNF-α and IFN-α production) (human pDCs) | production of IL-6 and TNF-α in PBMCs [3]
5′-M2UGCUGCUUGUG-/glycerol/-GUGUUCGUCGUM2-5′ (M2=C6-linker) (NUGCUGCUUGUGNGUGUUCGUCGUN; listed as RNA, chemistry not fully specified) [TLR8 agonist, PN-based TLR8 ligand stabilized immunomodulatory RNA, previously identified (Lan et al., PNAS 2007)] | Only cells from transgenic animals responded | did not stimulate | Only cells from transgenic animals responded | to a lesser extent | did not stimulate | did not stimulate | stimulated production
5′-URCURCUUCUR-/glycerol/-RUCUUCRUCRU-5′ (R=7-deazaguanosine) [TLR7 agonist] | – | – | – | to a lesser extent | – | – | stimulated production
